# Measured values: ChEMBL document CHEMBL1132522, “A new potent inhibitor of fungal melanin biosynthesis identified through combinatorial chemistry” (Bioorg Med Chem Lett, 1999)
# pKi: −log10 of the molar value.
# Biological target: T1, Scytalone dehydratase (Magnaporthe oryzae (strain 70-15 / FGSC 8958) (Rice blast fungus)(Pyricularia oryzae), UniProt P56221)
# T1 sequence (P56221 whole entry): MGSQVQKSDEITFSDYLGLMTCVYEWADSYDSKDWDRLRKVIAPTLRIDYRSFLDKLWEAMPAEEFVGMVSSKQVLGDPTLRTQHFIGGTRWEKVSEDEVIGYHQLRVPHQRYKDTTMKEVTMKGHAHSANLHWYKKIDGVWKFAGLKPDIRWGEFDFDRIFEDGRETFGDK
# Assay: Inhibitory activity against Scytalone dehydratase
# Design: species or system Pyricularia grisea
row,SMILES,pKi
1,CC(CCc1ccccc1)NC(=O)C1(C(F)(F)F)CC(C)(Cl)C1 (configuration not stated),8.07
2,C[C@@H](NC(=O)C1(C(F)(F)F)CC(C)(Cl)C1)c1ccc(Br)cc1 (some centres not stated),10.31
3,CC(NC(=O)C1(C(F)(F)F)CC(C)(Cl)C1)c1ccc(Oc2ccccc2)cc1 (configuration not stated),8.25
4,C[C@H](COc1ccccc1F)NC(=O)C1(C(F)(F)F)CC(C)(Cl)C1 (some centres not stated),9.11
5,C[C@@H](NC(=O)[C@]1(C(F)(F)F)C[C@](C)(Cl)C1)c1ccc(Br)cc1 (stereo in doubt; 3a),8.64
6,C[C@@H](NC(=O)[C@]1(C(F)(F)F)C[C@](C)(Cl)C1)c1ccc(Br)cc1 (stereo in doubt; 3b),10.59

# System: Oryza sp.
# Assay: Compound was evaluated for protecting rice plants from infestation by blast upon foliar application.
# Type: functional
row,SMILES,ED90 [p.p.m.]
1,C[C@@H](NC(=O)[C@]1(C(F)(F)F)C[C@](C)(Cl)C1)c1ccc(Br)cc1 (stereo in doubt; 3b),40
